# From US8304447B2, “2-acylaminopropoanol-type glucosylceramide synthase inhibitors” (Genzyme Corporation, priority 2007, dated 2012)
# Test system: GM3
# Assay: GM3 Elisa assay
# Format: cell-based
# Settings: 48 h, Table 1; B16-FO cells, 2 days incubation; read-out: IC50_uM_Mean
# Experimental: B16-FO cells from ATCC (American Tissue Culture Collection) were grown in DMEM media (ATCC) with 10% Fetal Bovine Serum (Hyclone) and Pen/Step/Glutamine (Biowhittaker). 4000 cells per well were plated on collagen coated plates (BD) and allowed to attach for 6 hours in an incubator (37 degrees, 5% CO2). After 6 hours the compounds and controls were added to the wells, the plates mixed and returned to the incubator for 2 days. Day of assay the cells were fixed for 20 minutes with 1% formaldehyde and then washed with Tris Buffered Saline (TBS) 3 times, 150 μl of TBS was left in the wells and 50 μl of goat serum (Invitrogen) was added, the plates mixed and incubated for 1 hour at room temperature. The plates were flicked and the cells incubated with the monoclonal Antibody to GM3 (NeuAc) (Cosmo) for 45 minutes as room temperature. The plates were then washed 3 times with TBS, leaving 150 μl of TBS in the wells and Peroxidase AffinPure F (ab′) 2 frag Gt Anti-mouse IgM, μ Chain Specific (Jackson Immuno Research) was added in 50 μl, the plates mixed and incubated for 45 minutes at room temperature. The plates were washed 3 times with TBS, flicked and blotted and 100 μl of Quantablu (Pierce) was added to the wells and incubated for 1 hour then read on a Fluorometer at Ex 325 and Em 420. The data was then analyzed using standard programs.
row,IC50,Structure (SMILES)
1,≤ 100 nM,"Cc1ccc(OCCC(=O)N[C@H](CN2CCCC2)[C@H](O)c2ccc3c(c2)OCCO3)cc1 [Compound 59, N-((1R,2R)-1-(2,3-dihydrobenzo[β][1,4]dioxin-6-yl)-1-hydroxy-3-(pyrrolidin-1-yl)propan-2-yl)-3-(p-tolyloxy)propanamide]"
2,≤ 100 nM,"O=C(CCOc1ccccc1F)N[C@H](CN1CCCC1)[C@H](O)c1ccc2c(c1)OCCO2 [Compound 60, N-((1R,2R)-1-(2,3-dihydrobenzo[β][1,4]dioxin-6-yl)-1-hydroxy-3-(pyrrolidin-1-yl)propan-2-yl)-3-(2-fluorophenoxy)propanamide]"
3,≤ 100 nM,"COc1ccc(CCC(=O)N[C@H](CN2CCCC2)[C@H](O)c2ccc3c(c2)OCCO3)cc1Cl [Compound 92, 3-(3-chloro-4-methoxyphenyl)-N-((1R,2R)-1-(2,3-dihydrobenzo[β][1,4]dioxin-6-yl)-1-hydroxy-3-(pyrrolidin-1-yl)propan-2-yl)propanamide]"
4,≤ 100 nM,"O=C(CCCc1nc2ccccc2s1)NC(CN1CCCC1)[C@H](O)c1ccc2c(c1)OCCO2 (stereo partly drawn) [Compound 101, 4-(benzo[d]thiazol-2-yl)-N-((1R,2R)-1-(2,3-dihydrobenzo[β][1,4]dioxin-6-yl)-1-hydroxy-3-(pyrrolidin-1-yl)propan-2-yl)butanamide]"
5,1000 to 3000 nM,"O=C(CCCCCNS(=O)(=O)c1ccc2c(c1)OCCO2)N[C@H](CN1CCCC1)[C@H](O)c1ccc2c(c1)OCCO2 [Compound 102, N-((1R,2R)-1-(2,3-dihydrobenzo[β][1,4]dioxin-6-yl)-1-hydroxy-3-(pyrrolidin-1-yl)propan-2-yl)-6-(2,3-dihydrobenzo[β][1,4]dioxine-6-sulfonamido)hexanamide]"
6,100 to 1000 nM,"O=C(CCCCNC(=O)c1ccccc1)N[C@H](CN1CCCC1)[C@H](O)c1ccc2c(c1)OCCO2 [Compound 104, N-(5-((1R,2R)-1-(2,3-dihydrobenzo[β][1,4]dioxin-6-yl)-1-hydroxy-3-(pyrrolidin-1-yl)propan-2-ylamino)-5-oxopentyl)benzamide]"
7,100 to 1000 nM,"O=C(CCCC(=O)c1ccccc1)N[C@H](CN1CCCC1)[C@H](O)c1ccc2c(c1)OCCO2 [Compound 113, N-((1R,2R)-1-(2,3-dihydrobenzo[β][1,4]dioxin-6-yl)-1-hydroxy-3-(pyrrolidin-1-yl)propan-2-yl)-5-oxo-5-phenylpentanamide]"
8,≤ 100 nM,"COc1c(C)cc(C(=O)CCCCC(=O)N[C@H](CN2CCCC2)[C@H](O)c2ccc3c(c2)OCCO3)cc1C [Compound 140, N-((1R,2R)-1-(2,3-dihydrobenzo[β][1,4]dioxin-6-yl)-1-hydroxy-3-(pyrrolidin-1-yl)propan-2-yl)-6-(4-methoxy-3,5-dimethylphenyl)-6-oxohexanamide]"
9,≤ 100 nM,"COc1ccc(C(=O)CCCCC(=O)N[C@H](CN2CCCC2)[C@H](O)c2ccc3c(c2)OCCO3)cc1 [Compound 141, N-((1R,2R)-1-(2,3-dihydrobenzo[β][1,4]dioxin-6-yl)-1-hydroxy-3-(pyrrolidin-1-yl)propan-2-yl)-6-(4-methoxyphenyl)-6-oxohexanamide]"
10,≤ 100 nM,"COc1ccc(C(=O)CCCCCCC(=O)N[C@H](CN2CCCC2)[C@H](O)c2ccc3c(c2)OCCO3)cc1 [Compound 144, N-((1R,2R)-1-(2,3-dihydrobenzo[β][1,4]dioxin-6-yl)-1-hydroxy-3-(pyrrolidin-1-yl)propan-2-yl)-8-(4-methoxyphenyl)-8-oxooctanamide]"

# The remaining lines, values behind:
row,Structure (SMILES),IC50
1,"COc1ccc(OCCC(=O)N[C@H](CN2CCCC2)[C@H](O)c2ccc3c(c2)OCCO3)cc1 [Compound 61, N-((1R,2R)-1-(2,3-dihydrobenzo[β][1,4]dioxin-6-yl)-1-hydroxy-3-(pyrrolidin-1-yl)propan-2-yl)-3-(4-methoxyphenoxy)propanamide]",≤ 100 nM
2,"COc1cccc(-c2ccc(CC(=O)N[C@H](CN3CCCC3)[C@H](O)c3ccc4c(c3)OCCO4)cc2)c1 [Compound 63, N-((1R,2R)-1-(2,3-dihydrobenzo[β][1,4]dioxin-6-yl)-1-hydroxy-3-(pyrrolidin-1-yl)propan-2-yl)-2-(3 methoxybiphenyl-4-yl)acetamide]",≤ 100 nM
3,"O=C(Cc1ccc(-c2cccc(Cl)c2)cc1)N[C@@H](CN1CCCC1)[C@@H](O)c1ccc2c(c1)OCCO2 [Compound 65, 2-(3′-chlorobiphenyl-4-yl)-N-((1R,2R)-1-(2,3-dihydrobenzo[β][1,4]dioxin-6-yl)-1-hydroxy-3-(pyrrolidin-1-yl)propan-2-yl)acetamide]",≤ 100 nM
4,"O=C(Nc1cccc(C(F)(F)F)c1)N[C@H](CN1CCCC1)[C@H](O)c1ccc2c(c1)OCCO2 [Compound 68, 1-((1R,2R)-1-(2,3-dihydrobenzo[β][1,4]dioxin-6-yl)-1-hydroxy-3-(pyrrolidin-1-yl)propan-2-yl)-3-(3-(trifluoromethyl)phenyl)urea]",100 to 1000 nM
5,"O=C(Nc1ccc2ccccc2c1)N[C@H](CN1CCCC1)[C@H](O)c1ccc2c(c1)OCCO2 [Compound 69, 1-((1R,2R)-1-(2,3-dihydrobenzo[β][1,4]dioxin-6-yl)-1-hydroxy-3-(pyrrolidin-1-yl)propan-2-yl)-3-(naphthalen-2-yl)urea]",100 to 1000 nM
6,"O=C(Nc1ccc(-c2ccccc2)cc1)N[C@H](CN1CCCC1)[C@H](O)c1ccc2c(c1)OCCO2 [Compound 70, 1-(biphenyl-4-yl)-3-((1R,2R)-1-(2,3-dihydrobenzo[β][1,4]dioxin-6-yl)-1-hydroxy-3-(pyrrolidin-1-yl)propan-2-yl)urea]",≤ 100 nM
7,"C[C@H](NC(=O)N[C@H](CN1CCCC1)[C@H](O)c1ccc2c(c1)OCCO2)c1cccc2ccccc12 [Compound 71, 1-((1R,2R)-1-(2,3-dihydrobenzo [β][1,4]dioxin-6-yl)-1-hydroxy-3-(pyrrolidin-1-yl)propan-2-yl)-3-((S)-1-(naphthalen-1-yl)ethyl)urea]",100 to 1000 nM
8,"COc1cccc(CNC(=O)N[C@H](CN2CCCC2)[C@H](O)c2ccc3c(c2)OCCO3)c1 [Compound 80, 1-((1R,2R)-1-(2,3-dihydrobenzo[β][1,4]dioxin-6-yl)-1-hydroxy-3-(pyrrolidin-1-yl)propan-2-yl)-3-(3-methoxybenzyl)urea]",100 to 1000 nM
9,"O=C(Nc1ccc(C(F)(F)F)cc1)N[C@H](CN1CCCC1)[C@H](O)c1ccc2c(c1)OCCO2 [Compound 81, 1-((1R,2R)-1-(2,3-dihydrobenzo[β][1,4]dioxin-6-yl)-1-hydroxy-3-(pyrrolidin-1-yl)propan-2-yl)-3-(4-(trifluoromethyl)phenyl)urea]",100 to 1000 nM
10,"O=C(Nc1ccc(OC(F)(F)F)cc1)N[C@H](CN1CCCC1)[C@H](O)c1ccc2c(c1)OCCO2 [Compound 82, 1-((1R,2R)-1-(2,3-dihydrobenzo[β][1,4]dioxin-6-yl)-1-hydroxy-3-(pyrrolidin-1-yl)propan-2-yl)-3-(4-(trifluoromethoxy)phenyl)urea]",≤ 100 nM
11,"O=C(COc1ccc(Cl)cc1)N[C@H](CN1CCCC1)[C@H](O)c1ccc2c(c1)OCCO2 [Compound 83, 2-(4-chlorophenoxy)-N-((1R,2R)-1-(2,3-dihydrobenzo[β][1,4]dioxin-6-yl)-1-hydroxy-3-(pyrrolidin-1-yl)propan-2-yl)acetamide]",≤ 100 nM
12,"O=C(Cc1cccc(Oc2ccccc2)c1)N[C@H](CN1CCCC1)[C@H](O)c1ccc2c(c1)OCCO2 [Compound 86, N-((1R,2R)-1-(2,3-dihydrobenzo[b][1,4]dioxin-6-yl)-1-hydroxy-3-(pyrrolidin-1-yl)propan-2-yl)-2-(3-phenoxyphenyl)acetamide]",≤ 100 nM
13,"O=C(COc1ccc(Cl)c(Cl)c1)N[C@H](CN1CCCC1)[C@H](O)c1ccc2c(c1)OCCO2 [Compound 87, 2-(3,4-dichlorophenoxy)-N-((1R,2R)-1-(2,3-dihydrobenzo[β][1,4]dioxin-6-yl)-1-hydroxy-3-(pyrrolidin-1-yl)propan-2-yl)acetamide]",≤ 100 nM
14,"O=C(N[C@H](CN1CCCC1)[C@H](O)c1ccc2c(c1)OCCO2)c1cc(-c2cccs2)on1 [Compound 90, N-((1R,2R)-1-(2,3-dihydrobenzo[β][1,4]dioxin-6-yl)-1-hydroxy-3-(pyrrolidin-1-yl)propan-2-yl)-5-(thiophen-2-yl)isoxazole-3-carboxamide]",100 to 1000 nM
15,"O=C(CCc1ccc(C(F)(F)F)cc1)N[C@H](CN1CCCC1)[C@H](O)c1ccc2c(c1)OCCO2 [Compound 96, N-((1R,2R)-1-(2,3-dihydrobenzo[β][1,4]dioxin-6-yl)-1-hydroxy-3-(pyrrolidin-1-yl)propan-2-yl)-3-(4-(trifluoromethyl)phenyl)propanamide]",≤ 100 nM
16,"O=C(Cc1ccc(OC(F)(F)F)cc1)N[C@H](CN1CCCC1)[C@H](O)c1ccc2c(c1)OCCO2 [Compound 103, N-((1R,2R)-1-(2,3-dihydrobenzo[β][1,4]dioxin-6-yl)-1-hydroxy-3-(pyrrolidin-1-yl)propan-2-yl)-2-(4-(trifluoromethoxy)phenyl)acetamide]",≤ 100 nM
17,"CCOc1ccc(C(=O)CCC(=O)N[C@H](CN2CCCC2)[C@H](O)c2ccc3c(c2)OCCO3)cc1 [Compound 127, N-((1R,2R)-1-(2,3-dihydrobenzo[b][1,4]dioxin-6-yl)-1-hydroxy-3-(pyrrolidin-1-yl)propan-2-yl)-4-(4-ethoxyphenyl)-4-oxobutanamide]",100 to 1000 nM
18,"Cc1nc(-c2ccc(NC(=O)N[C@H](CN3CCCC3)[C@H](O)c3ccc4c(c3)OCCO4)cc2)cs1 [Compound 133, 1-((1R,2R)-1-(2,3-dihydrobenzo[β][1,4]dioxin-6-yl)-1-hydroxy-3-(pyrrolidin-1-yl)propan-2-yl)-3-(4-(2-methylthiazol-4-yl)phenyl)urea]",3000 to 10000 nM
